Tests used:
Assay in all cases: KinomeScan profiling
Assay type in all cases: binding
CAMK1D = CAMK1D (Homo sapiens, UniProt Q8IU85); settings: read-out: % control
How it was run: (§1)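 Percent-of-control values derive from RLU, calculated as (test − positive)/(negative − positive) × 100, where DMSO defines 100% and a positive control compound defines 0%. Each compound was tested at 1 μM in the 468-kinase panel; sub-35% readings indicate activity.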

DYRK1B = DYRK1B (Homo sapiens, UniProt Q9Y463); settings: read-out: % control
How it was run: as §1

EPHA6 = target: T1, EPHA6 (Homo sapiens, UniProt Q9UF33); settings: EPHA6, 1 μM; read-out: % control
T1 sequence (Q9UF33 23-1036): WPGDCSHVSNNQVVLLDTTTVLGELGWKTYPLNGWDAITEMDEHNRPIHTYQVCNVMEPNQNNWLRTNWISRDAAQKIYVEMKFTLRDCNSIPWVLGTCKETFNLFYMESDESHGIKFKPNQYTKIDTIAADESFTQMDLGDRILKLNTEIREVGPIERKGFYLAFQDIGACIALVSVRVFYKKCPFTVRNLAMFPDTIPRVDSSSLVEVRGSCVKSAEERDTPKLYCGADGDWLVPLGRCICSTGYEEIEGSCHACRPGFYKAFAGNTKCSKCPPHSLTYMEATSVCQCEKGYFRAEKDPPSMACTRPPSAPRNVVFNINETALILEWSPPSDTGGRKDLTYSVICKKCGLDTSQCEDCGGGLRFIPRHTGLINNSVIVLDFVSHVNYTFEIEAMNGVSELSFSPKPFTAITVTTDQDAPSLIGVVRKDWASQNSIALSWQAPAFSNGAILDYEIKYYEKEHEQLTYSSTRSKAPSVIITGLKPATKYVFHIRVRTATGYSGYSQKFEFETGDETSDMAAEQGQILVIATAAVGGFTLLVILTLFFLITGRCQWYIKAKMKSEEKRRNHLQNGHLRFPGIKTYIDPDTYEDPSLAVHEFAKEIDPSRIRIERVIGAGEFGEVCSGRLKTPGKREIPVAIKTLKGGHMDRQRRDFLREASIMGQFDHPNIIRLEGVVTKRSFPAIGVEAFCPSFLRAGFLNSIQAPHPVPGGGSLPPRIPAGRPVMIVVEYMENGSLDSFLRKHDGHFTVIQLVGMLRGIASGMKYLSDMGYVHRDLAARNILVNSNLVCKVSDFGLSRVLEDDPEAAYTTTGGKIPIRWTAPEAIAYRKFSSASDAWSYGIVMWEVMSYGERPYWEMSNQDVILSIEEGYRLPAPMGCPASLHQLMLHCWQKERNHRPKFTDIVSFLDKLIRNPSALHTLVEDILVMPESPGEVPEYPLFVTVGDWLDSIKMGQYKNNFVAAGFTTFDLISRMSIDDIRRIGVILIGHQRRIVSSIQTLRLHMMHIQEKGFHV
How it was run: as §1

FLT4 = FLT4 (Homo sapiens, UniProt P35916); settings: FLT4, 1 μM; read-out: % control
How it was run: as §1

INSR = target: T2, INSR (Homo sapiens, UniProt P06213); settings: read-out: % control
T2 construct: purchased KinomeScan®
How it was run: as §1

PAK3 = PAK3 (Homo sapiens, UniProt O75914); settings: PAK3, 1 μM; read-out: % control
How it was run: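 Luminescence (RLU) was converted to percent of control, with DMSO set as 100% and a reference compound as 0%. Test compounds were run at 1 μM against 468 kinases. Kinases showing below 35% of control were scored as bound.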

PKN2 = PKN2 (Homo sapiens, UniProt Q16513); settings: PKN2, 1 μM; read-out: % control
How it was run: as §1

SIK2 = target: T3, SIK2 (Homo sapiens, UniProt Q9H0K1); settings: SIK2, 1 μM; read-out: % control
T3 construct: purchased KinomeScan® (panel service)
How it was run: as §1

TLK1 = target: T4, TLK1 (Homo sapiens, UniProt Q9UKI8); settings: TLK1, 1 μM; read-out: % control
T4 sequence (Q9UKI8 1-766): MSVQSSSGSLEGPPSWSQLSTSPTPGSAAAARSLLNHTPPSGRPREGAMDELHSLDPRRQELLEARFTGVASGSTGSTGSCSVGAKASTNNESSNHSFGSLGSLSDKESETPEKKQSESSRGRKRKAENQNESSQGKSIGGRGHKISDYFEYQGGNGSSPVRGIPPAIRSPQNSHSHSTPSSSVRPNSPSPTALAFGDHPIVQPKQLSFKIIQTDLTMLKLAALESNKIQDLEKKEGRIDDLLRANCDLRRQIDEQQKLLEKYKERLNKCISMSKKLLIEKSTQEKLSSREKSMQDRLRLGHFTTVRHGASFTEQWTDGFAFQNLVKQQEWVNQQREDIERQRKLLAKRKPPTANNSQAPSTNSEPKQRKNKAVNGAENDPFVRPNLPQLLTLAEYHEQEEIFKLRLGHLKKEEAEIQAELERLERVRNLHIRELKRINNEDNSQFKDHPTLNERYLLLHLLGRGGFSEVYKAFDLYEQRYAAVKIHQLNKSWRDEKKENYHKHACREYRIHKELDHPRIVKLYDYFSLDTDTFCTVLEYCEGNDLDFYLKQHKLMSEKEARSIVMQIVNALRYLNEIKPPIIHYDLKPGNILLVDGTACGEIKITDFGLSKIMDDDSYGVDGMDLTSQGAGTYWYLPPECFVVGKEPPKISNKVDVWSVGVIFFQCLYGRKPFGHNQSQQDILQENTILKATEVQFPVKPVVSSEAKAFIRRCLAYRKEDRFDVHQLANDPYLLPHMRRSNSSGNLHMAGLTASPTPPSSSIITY
How it was run: as §1

Chain of PAK3 (O75914 whole entry): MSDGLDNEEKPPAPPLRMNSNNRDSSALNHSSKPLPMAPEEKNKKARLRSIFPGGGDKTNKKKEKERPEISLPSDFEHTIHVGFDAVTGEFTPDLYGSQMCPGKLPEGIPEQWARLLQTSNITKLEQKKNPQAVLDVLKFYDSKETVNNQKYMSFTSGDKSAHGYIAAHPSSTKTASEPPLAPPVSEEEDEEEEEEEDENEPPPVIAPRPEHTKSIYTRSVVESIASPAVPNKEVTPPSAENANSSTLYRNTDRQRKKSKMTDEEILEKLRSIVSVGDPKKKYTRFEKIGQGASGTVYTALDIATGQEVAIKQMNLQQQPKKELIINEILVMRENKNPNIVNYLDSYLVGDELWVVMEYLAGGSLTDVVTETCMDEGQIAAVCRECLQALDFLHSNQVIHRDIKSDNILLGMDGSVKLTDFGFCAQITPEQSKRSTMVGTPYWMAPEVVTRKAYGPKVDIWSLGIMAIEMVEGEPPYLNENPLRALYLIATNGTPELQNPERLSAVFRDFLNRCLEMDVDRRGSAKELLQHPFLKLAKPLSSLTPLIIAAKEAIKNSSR
T3 sequence (Q9H0K1 whole entry): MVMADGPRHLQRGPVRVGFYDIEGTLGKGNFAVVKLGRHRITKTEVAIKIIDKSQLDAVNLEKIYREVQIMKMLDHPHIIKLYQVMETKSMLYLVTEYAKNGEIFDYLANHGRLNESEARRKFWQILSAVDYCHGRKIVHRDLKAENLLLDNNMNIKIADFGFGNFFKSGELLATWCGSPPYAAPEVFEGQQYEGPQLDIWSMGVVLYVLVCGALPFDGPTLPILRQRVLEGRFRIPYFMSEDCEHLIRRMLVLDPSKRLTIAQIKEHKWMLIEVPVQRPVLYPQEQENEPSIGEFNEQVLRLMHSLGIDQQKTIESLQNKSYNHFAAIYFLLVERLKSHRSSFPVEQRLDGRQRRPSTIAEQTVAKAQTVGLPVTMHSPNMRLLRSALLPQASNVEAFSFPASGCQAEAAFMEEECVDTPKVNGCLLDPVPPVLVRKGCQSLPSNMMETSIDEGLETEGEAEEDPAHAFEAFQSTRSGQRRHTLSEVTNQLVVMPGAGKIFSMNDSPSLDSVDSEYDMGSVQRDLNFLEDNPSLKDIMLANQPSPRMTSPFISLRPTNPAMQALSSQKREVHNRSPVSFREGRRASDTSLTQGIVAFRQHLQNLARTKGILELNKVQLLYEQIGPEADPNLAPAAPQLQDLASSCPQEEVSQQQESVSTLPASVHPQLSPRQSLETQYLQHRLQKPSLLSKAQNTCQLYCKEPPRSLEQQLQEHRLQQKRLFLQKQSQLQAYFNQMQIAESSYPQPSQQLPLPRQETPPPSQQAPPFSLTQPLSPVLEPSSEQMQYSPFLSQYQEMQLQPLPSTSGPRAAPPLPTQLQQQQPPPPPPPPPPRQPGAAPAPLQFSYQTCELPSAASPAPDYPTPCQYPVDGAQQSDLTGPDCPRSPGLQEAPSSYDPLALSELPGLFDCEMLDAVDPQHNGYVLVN
T2 sequence (P06213 28-1382): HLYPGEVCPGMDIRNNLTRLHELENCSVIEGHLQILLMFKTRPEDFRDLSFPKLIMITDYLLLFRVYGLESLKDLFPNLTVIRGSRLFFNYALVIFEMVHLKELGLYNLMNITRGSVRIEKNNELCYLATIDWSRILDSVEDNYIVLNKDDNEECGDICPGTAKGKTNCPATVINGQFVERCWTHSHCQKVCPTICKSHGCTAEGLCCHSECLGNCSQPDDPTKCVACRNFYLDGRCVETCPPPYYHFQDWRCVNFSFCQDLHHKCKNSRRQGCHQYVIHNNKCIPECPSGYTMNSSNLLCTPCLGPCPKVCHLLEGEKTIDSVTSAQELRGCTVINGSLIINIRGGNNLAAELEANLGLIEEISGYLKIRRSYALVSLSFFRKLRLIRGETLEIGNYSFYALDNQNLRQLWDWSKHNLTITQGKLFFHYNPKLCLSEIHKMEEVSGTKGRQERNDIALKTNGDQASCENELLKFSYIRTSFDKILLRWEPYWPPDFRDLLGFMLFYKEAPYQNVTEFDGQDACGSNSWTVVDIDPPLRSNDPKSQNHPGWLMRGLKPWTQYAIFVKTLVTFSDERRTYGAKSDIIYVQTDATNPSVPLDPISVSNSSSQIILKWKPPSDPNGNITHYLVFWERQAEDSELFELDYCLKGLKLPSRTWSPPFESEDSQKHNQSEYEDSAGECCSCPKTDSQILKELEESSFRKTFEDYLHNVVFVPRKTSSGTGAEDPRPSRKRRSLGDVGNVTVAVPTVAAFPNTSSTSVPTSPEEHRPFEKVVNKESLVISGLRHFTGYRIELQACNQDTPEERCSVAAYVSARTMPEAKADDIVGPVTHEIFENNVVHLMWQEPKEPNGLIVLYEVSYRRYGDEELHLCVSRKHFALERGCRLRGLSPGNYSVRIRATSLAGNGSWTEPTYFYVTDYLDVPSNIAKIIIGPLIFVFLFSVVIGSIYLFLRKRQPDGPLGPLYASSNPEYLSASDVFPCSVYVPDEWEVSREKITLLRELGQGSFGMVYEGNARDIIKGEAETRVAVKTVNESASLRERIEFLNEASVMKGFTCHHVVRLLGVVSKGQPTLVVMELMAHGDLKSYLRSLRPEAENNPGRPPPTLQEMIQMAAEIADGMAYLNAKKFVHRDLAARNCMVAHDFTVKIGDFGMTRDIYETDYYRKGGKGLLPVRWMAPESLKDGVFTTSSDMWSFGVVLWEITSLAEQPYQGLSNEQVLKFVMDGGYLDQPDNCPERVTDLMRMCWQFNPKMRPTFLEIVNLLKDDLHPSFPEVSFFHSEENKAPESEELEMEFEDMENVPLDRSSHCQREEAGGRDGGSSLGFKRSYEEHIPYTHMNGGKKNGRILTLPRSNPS
Chain of FLT4 (P35916 25-1363): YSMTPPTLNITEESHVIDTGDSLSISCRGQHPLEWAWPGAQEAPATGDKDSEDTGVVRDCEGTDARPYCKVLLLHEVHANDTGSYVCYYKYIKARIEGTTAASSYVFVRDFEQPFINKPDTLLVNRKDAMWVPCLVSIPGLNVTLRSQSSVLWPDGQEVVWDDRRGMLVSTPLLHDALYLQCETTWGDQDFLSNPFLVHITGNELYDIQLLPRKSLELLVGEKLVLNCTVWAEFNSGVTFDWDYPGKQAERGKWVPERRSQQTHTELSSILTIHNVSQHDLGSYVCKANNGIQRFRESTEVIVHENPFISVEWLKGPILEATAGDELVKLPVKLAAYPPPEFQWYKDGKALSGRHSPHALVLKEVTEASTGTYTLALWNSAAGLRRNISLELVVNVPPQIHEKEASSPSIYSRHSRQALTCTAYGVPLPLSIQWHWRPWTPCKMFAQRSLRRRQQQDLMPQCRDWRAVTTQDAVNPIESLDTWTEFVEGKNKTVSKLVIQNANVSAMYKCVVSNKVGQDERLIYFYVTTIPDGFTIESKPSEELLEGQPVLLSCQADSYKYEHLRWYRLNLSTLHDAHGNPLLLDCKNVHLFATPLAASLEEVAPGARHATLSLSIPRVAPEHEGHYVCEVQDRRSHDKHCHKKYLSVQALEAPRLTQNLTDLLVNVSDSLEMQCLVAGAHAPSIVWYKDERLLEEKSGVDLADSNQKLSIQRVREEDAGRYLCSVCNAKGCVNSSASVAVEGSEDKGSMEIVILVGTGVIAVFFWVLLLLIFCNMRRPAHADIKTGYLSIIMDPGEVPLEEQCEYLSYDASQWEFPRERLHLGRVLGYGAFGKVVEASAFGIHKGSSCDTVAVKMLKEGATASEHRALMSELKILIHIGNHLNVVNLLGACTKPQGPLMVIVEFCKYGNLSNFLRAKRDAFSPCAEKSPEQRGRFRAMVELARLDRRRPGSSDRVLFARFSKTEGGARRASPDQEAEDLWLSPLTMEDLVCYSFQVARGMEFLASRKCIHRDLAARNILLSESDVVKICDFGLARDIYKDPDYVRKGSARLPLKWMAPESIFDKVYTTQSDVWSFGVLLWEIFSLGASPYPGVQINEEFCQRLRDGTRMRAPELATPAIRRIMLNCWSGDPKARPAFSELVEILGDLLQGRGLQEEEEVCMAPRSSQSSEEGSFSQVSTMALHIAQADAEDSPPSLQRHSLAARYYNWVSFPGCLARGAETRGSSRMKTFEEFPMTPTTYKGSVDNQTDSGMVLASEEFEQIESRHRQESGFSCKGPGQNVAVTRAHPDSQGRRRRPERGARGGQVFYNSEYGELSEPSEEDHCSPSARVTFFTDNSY
Chain of DYRK1B (Q9Y463 whole entry): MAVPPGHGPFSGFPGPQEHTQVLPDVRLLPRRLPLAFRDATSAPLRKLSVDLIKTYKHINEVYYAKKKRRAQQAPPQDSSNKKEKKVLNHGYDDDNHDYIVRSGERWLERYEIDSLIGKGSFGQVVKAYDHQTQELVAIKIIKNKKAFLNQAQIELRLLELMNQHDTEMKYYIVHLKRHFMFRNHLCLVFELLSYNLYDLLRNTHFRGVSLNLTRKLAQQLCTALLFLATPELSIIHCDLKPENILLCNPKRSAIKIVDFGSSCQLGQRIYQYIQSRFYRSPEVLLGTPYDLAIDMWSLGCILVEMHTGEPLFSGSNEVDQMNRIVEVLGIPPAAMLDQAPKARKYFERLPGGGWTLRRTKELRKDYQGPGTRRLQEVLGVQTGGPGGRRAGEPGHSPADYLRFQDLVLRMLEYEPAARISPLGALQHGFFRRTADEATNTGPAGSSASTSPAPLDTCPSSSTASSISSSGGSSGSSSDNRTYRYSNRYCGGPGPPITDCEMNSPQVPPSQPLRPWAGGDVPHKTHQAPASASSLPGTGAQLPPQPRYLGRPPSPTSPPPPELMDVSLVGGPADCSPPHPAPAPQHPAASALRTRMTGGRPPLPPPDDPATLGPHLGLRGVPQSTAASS

Row | SMILES | remaining binding at 1 µM (CAMK1D) | remaining binding at 1 µM (DYRK1B) | remaining binding at 1 µM (EPHA6) | remaining binding at 1 µM (FLT4) | remaining binding at 1 µM (INSR) | remaining binding at 1 µM (PAK3) | remaining binding at 1 µM (PKN2) | remaining binding at 1 µM (SIK2) | remaining binding at 1 µM (TLK1)
1 | CNc1c(-c2cnn([C@H]3CCN(C(C)=O)C[C@@H]3F)c2)cnc2[nH]cc(Cl)c12 [Compound 77, 1-((3S,4S)-4-(4-(3-chloro-4-(methylamino)-1H-pyrrolo[2,3-b]pyridin-5-yl)-1H-pyrazol-1-yl)-3-fluoropiperidin-1-yl)ethan-1-one] | 85% | 100% | 93% | 47% | 53% | 97% | 51% | 100% | 95%
2 | O=C(c1ccc(-c2cnc3[nH]cc(Cl)c3c2NC2CCCC2)cc1)N1CCC(N2CCOCC2)CC1 [Compound 101, (4-(3-chloro-4-(cyclopentylamino)-1H-pyrrolo[2,3-b]pyridin-5-yl)phenyl)(4-morpholinopiperidin-1-yl)methanone] | 100% | 89% | 43% | 100% | 68% | 86% | 75% | 84% | 90%
3 | CNc1c(-c2ccc(C(=O)N3CCC(N4CCOCC4)CC3)cc2)cnc2[nH]cc(Cl)c12 [Compound 96, (4-(3-chloro-4-(methylamino)-1H-pyrrolo[2,3-b]pyridin-5-yl)phenyl)(4-morpholinopiperidin-1-yl)methanone] | 69% | 100% | 98% | 66% | 71% | 74% | 87% | 85% | 95%

Source: patent publication US12275731B2, “Azaindole inhibitors of wild-type and mutant forms of LRRK2” (DANA-FARBER CANCER INSTITUTE, INC., priority 2018, dated 2025)
